Source: patent publication US20060189546A1, “Compounds for treating autoimmune and demyelinating diseases” (priority 2005, published 2006)

Test system: Experimental Autoimmune Encephalomyelitis (EAE)
Assay: Chronic-progressive EAE, weekly treatment for 4 weeks (Example 2)
Format: in vivo, Hartley guinea pigs
Protocol: In the present experiment, female juvenile Hartley guinea pigs (225 g) were immunized with homogenized whole CNS (in saline) with an equal amount of complete Freund's Adjuvant and 10 mg added killed M. tuberculosis. The animals (>95%) show clinical signs starting on day 7 post immunization. An acute event of varying severity occurs between day 7 and day 20 followed by a continuous accumulation of clinical abnormality with hind limb paralysis, fecal impaction and incontinence. […] These clinical features indicate inflammation-induced lumbar spinal cord demyelination.
In these experiments, the immunized animals were nursed until day 40 or day 52 and then treated with 8 mg/kg and 16 mg/kg Symadex™ (intra cardiac), or 20 mg/kg and 40 mg/kg Symadex™ (i.p.) once a week for 4 weeks. Controls were given vehicle. Clinical signs were scored daily and the weights recorded. At the completion of the treatment period, the brain and spinal cord were dissected, formalin fixed and blocked for routine pathological examination of meningeal inflammation, perivascular infiltration (cuffing), parenchymal myelitis and demyelination by a blinded observer using hematoxylin-eosin and solochrome R cyanin stained sections.
Untreated, chronic EAE animals (n=5) were sacrificed on day 40, as well as non-EAE controls (n=5). Following each 10-day treatment interval, five animals from each group were sacrificed (0.25 ml sodium pentobarbital), blood samples were collected for FACS analysis (see below), and the brain and spinal cord dissected and sectioned. Three spinal sections were used, corresponding to lumbar, thoracic and cervical regions of the cord. The brain was cut into five transverse sections; the first three proximal sections were combined in one block, and the last two distal sections in another. Tissues were fixed in 10% formalin and embedded in paraffin. Five micrometer sections were stained with hematoxylin-eosin (H-E) or solochrome-R-cyanin (SCR) and evaluated by a blinded observer in each of the four categories: meningeal inflammation, perivascular infiltration, encephalitis or myelitis and demyelination (Table 2). The combined pathological score represents the total score (out of a potential 20) from all five CNS sections in each animal.
To quantify the abnormalities observed in the spinal cord, sections stained with H-E were divided into 12 representative pie-shaped areas. In each area, the number of cells within a 0.12-mm^2 field of view was counted using Sigma Scan Pro image analysis software (SPSS), and the combined mean number of cell in all 12 areas was calculated for the whole spinal cord (36 fields of view per animal). Note that as all cell nuclei were counted, the number of cells may include neurons and glial cells in addition to infiltrates.

[1] = CNS histopathology after treatment

Which results are given for CCN(CC)CCNc1ccc2ncn3c4ccc(O)cc4c(=O)c1c23 [Symadex™, 5-[[(diethylamino)ethyl]amino]-8-hydroxyimidazo[4,5,1-de]-acridine-6-one]?
time to clinical recovery from start of treatment (40 mg/kg i.p. once a week): ≤ 2 weeks; clinical progress and pathological findings (20 and 40 mg/kg i.p. once a week for 4 weeks): profound and substantial change in the clinical progress and pathological findings; cells in existing lesions [1]: profound loss of cells; remyelination (myelin pallor) [1]: myelin pallor previously attributed to remyelination; scores for meningeal inflammation and perivascular infiltration (treated groups vs vehicle controls, CNS histopathology): more severe in the treated groups than in vehicle controls
